Assay results reported in ChEMBL document CHEMBL1201862, “PubChem BioAssay data set” (2004).
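Growth conditions: 96-well plates. Treatment: test compound, 48 hours, 5 concentrations. Analysis: linear interpolation between bracketing concentrations; unreached endpoints set to highest concentration. The concentration for 50% growth inhibition is given as GI50.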 Active and inactive are the calls of the source. No stated cut-off is given here; in the data, active = GI50 up to about 1.1 µM and inactive = higher.

Key:
Experiment in all cases: DTP human tumour cell line panel, 48 h
COLO 205 = system: COLO 205
NCI-H23 = system: NCI-H23
PC-3 = system: PC-3
CAKI-1 = system: CAKI-1
OVCAR-3 = system: OVCAR-3
A549 = system: A549
SK-MEL-2 = system: SK-MEL-2
NCI/ADR-RES = system: NCI/ADR-RES
HL-60 = system: HL-60
ACHN = system: ACHN
HOP-62 = system: HOP-62
OVCAR-5 = system: OVCAR-5
SF-539 = system: SF-539
RXF 393 = system: RXF 393
MDA-MB-435 = system: MDA-MB-435
SNB-75 = system: SNB-75
NCI-H522 = system: NCI-H522
KM12 = system: KM12
SF-268 = system: SF-268
SK-OV-3 = system: SK-OV-3
UACC-257 = system: UACC-257
HOP-92 = system: HOP-92
UACC-62 = system: UACC-62
SF-295 = system: SF-295
A498 = system: A498
DU-145 = system: DU-145
IGROV-1 = system: IGROV-1
MDA-MB-231 = system: MDA-MB-231
EKVX = system: EKVX
HT-29 = system: HT-29
T47D = system: T47D
RPMI-8226 = system: RPMI-8226
BT-549 = system: BT-549
TK-10 = system: TK-10
SK-MEL-5 = system: SK-MEL-5
Malme-3M = system: Malme-3M
SNB-19 = system: SNB-19
SK-MEL-28 = system: SK-MEL-28
SR = system: SR
K562 = system: K562
Hs-578T = system: Hs-578T
HCT-15 = system: HCT-15
HCT-116 = system: HCT-116
U-251 = system: U-251
NCI-H226 = system: NCI-H226
LOX IMVI = system: LOX IMVI
SN12C = system: SN12C
MCF7 = system: MCF7
UO-31 = system: UO-31
M14 = system: M14
MOLT-4 = system: MOLT-4
CCRF-CEM = system: CCRF-CEM
MDA-N = system: MDA-N
OVCAR-4 = system: OVCAR-4
OVCAR-8 = system: OVCAR-8
786-0 = system: 786-0
SW-620 = system: SW-620
NCI-H460 = system: NCI-H460
HCC 2998 = system: HCC 2998

NCCNS(=O)(=O)c1ccc(N)cc1
GI50 (COLO 205): > 100 µM (inactive)
GI50 (NCI-H23): > 100 µM (inactive)
GI50 (PC-3): > 100 µM (inactive)
GI50 (CAKI-1): > 100 µM (inactive)
GI50 (OVCAR-3): > 100 µM (inactive)
GI50 (A549): > 100 µM (inactive)
GI50 (SK-MEL-2): > 100 µM (inactive)
GI50 (NCI/ADR-RES): > 100 µM (inactive)
GI50 (HL-60): 18.7 µM (inactive)
GI50 (ACHN): > 100 µM (inactive)
GI50 (HOP-62): > 100 µM (inactive)
GI50 (OVCAR-5): > 100 µM (inactive)
GI50 (SF-539): 49.1 µM (inactive)
GI50 (RXF 393): > 100 µM (inactive)
GI50 (MDA-MB-435): > 100 µM (inactive)
GI50 (SNB-75): > 100 µM (inactive)
GI50 (NCI-H522): > 100 µM (inactive)
GI50 (KM12): > 100 µM (inactive)
GI50 (SF-268): > 100 µM (inactive)
GI50 (SK-OV-3): > 100 µM (inactive)
GI50 (UACC-257): > 100 µM (inactive)
GI50 (HOP-92): > 100 µM (inactive)
GI50 (UACC-62): > 100 µM (inactive)
GI50 (SF-295): > 100 µM (inactive)
GI50 (A498): > 100 µM (inactive)
GI50 (DU-145): > 100 µM (inactive)
GI50 (IGROV-1): > 100 µM (inactive)
GI50 (MDA-MB-231): > 100 µM (inactive)
GI50 (EKVX): > 100 µM (inactive)
GI50 (HT-29): > 100 µM (inactive)
GI50 (T47D): > 100 µM (inactive)
GI50 (RPMI-8226): > 100 µM (inactive)
GI50 (BT-549): > 100 µM (inactive)
GI50 (TK-10): > 100 µM (inactive)
GI50 (SK-MEL-5): > 100 µM (inactive)
GI50 (Malme-3M): > 100 µM (inactive)
GI50 (SNB-19): > 100 µM (inactive)
GI50 (SK-MEL-28): > 100 µM (inactive)
GI50 (SR): 41.4 µM (inactive)
GI50 (K562): > 100 µM (inactive)
GI50 (Hs-578T): 66.1 µM (inactive)
GI50 (HCT-15): > 100 µM
GI50 (HCT-116): > 100 µM (inactive)
GI50 (U-251): > 100 µM (inactive)
GI50 (NCI-H226): > 100 µM (inactive)
GI50 (LOX IMVI): > 100 µM (inactive)
GI50 (SN12C): > 100 µM (inactive)
GI50 (MCF7): > 100 µM (inactive)
GI50 (UO-31): > 100 µM (inactive)
GI50 (M14): > 100 µM (inactive)
GI50 (MOLT-4): > 100 µM (inactive)
GI50 (CCRF-CEM): 32.8 µM (inactive)
GI50 (MDA-N): > 100 µM (inactive)
GI50 (OVCAR-4): > 100 µM (inactive)
GI50 (OVCAR-8): > 100 µM (inactive)
GI50 (786-0): > 100 µM (inactive)
GI50 (SW-620): > 100 µM (inactive)

CC(C)(C)OC(=O)N1[C@@H]2Cc3ccc(N)cc3[C@@]1(C)c1ccccc12
GI50 (NCI-H23): 19.3 µM (inactive)
GI50 (NCI-H460): 21.2 µM (inactive)
GI50 (PC-3): 29.9 µM (inactive)
GI50 (CAKI-1): 45.2 µM (inactive)
GI50 (OVCAR-3): 20.8 µM (inactive)
GI50 (A549): 35.6 µM (inactive)
GI50 (SK-MEL-2): 20 µM (inactive)
GI50 (NCI/ADR-RES): 22.4 µM (inactive)
GI50 (HCC 2998): 21.3 µM (inactive)
GI50 (HL-60): 20.1 µM (inactive)
GI50 (ACHN): 36.8 µM (inactive)
GI50 (HOP-62): 35 µM (inactive)
GI50 (OVCAR-5): 42.1 µM (inactive)
GI50 (RXF 393): 15 µM (inactive)
GI50 (MDA-MB-435): 16.8 µM (inactive)
GI50 (NCI-H522): 12.2 µM (inactive)
GI50 (KM12): 33 µM (inactive)
GI50 (SF-268): 37.3 µM (inactive)
GI50 (SK-OV-3): 34 µM (inactive)
GI50 (UACC-257): 27.2 µM (inactive)
GI50 (HOP-92): 23.9 µM (inactive)
GI50 (UACC-62): 20.6 µM (inactive)
GI50 (SF-295): 28.1 µM (inactive)
GI50 (A498): 30.5 µM (inactive)
GI50 (DU-145): 30.3 µM (inactive)
GI50 (IGROV-1): 46.7 µM (inactive)
GI50 (MDA-MB-231): 27.7 µM (inactive)
GI50 (EKVX): 38.3 µM (inactive)
GI50 (HT-29): 21.6 µM (inactive)
GI50 (T47D): 17.7 µM (inactive)
GI50 (RPMI-8226): 21.8 µM (inactive)
GI50 (BT-549): 18.7 µM (inactive)
GI50 (TK-10): 35.5 µM (inactive)
GI50 (SK-MEL-5): 0.9 µM (active)
GI50 (Malme-3M): 29.9 µM (inactive)
GI50 (SNB-19): 44.1 µM (inactive)
GI50 (K562): 24.8 µM (inactive)
GI50 (Hs-578T): 36.6 µM (inactive)
GI50 (HCT-15): 11.1 µM
GI50 (HCT-116): 18.7 µM (inactive)
GI50 (U-251): 17 µM (inactive)
GI50 (LOX IMVI): 19.6 µM (inactive)
GI50 (SN12C): 16.8 µM (inactive)
GI50 (MCF7): 34.1 µM (inactive)
GI50 (UO-31): 40.6 µM (inactive)
GI50 (M14): 24 µM (inactive)
GI50 (MOLT-4): 19 µM (inactive)
GI50 (CCRF-CEM): 25.8 µM (inactive)
GI50 (MDA-N): 21.2 µM (inactive)
GI50 (OVCAR-4): 29.8 µM (inactive)
GI50 (786-0): 19.1 µM (inactive)
GI50 (SW-620): 29.7 µM (inactive)

Cc1nc(O)c2c3c(sc2n1)CCCC3
GI50 (COLO 205): > 100 µM (inactive)
GI50 (NCI-H23): > 100 µM (inactive)
GI50 (NCI-H460): 0.284 µM (active)
GI50 (PC-3): > 100 µM (inactive)
GI50 (CAKI-1): > 100 µM (inactive)
GI50 (OVCAR-3): > 100 µM (inactive)
GI50 (A549): 78.5 µM (inactive)
GI50 (SK-MEL-2): > 100 µM (inactive)
GI50 (NCI/ADR-RES): > 100 µM (inactive)
GI50 (HL-60): > 100 µM (inactive)
GI50 (ACHN): 54.5 µM (inactive)
GI50 (HOP-62): > 100 µM (inactive)
GI50 (OVCAR-5): 60.7 µM (inactive)
GI50 (SF-539): 56.8 µM (inactive)
GI50 (RXF 393): > 100 µM (inactive)
GI50 (MDA-MB-435): > 100 µM (inactive)
GI50 (SNB-75): > 100 µM (inactive)
GI50 (NCI-H522): > 100 µM (inactive)
GI50 (KM12): > 100 µM (inactive)
GI50 (SF-268): > 100 µM (inactive)
GI50 (SK-OV-3): > 100 µM (inactive)
GI50 (UACC-257): > 100 µM (inactive)
GI50 (HOP-92): > 100 µM (inactive)
GI50 (UACC-62): 58.2 µM (inactive)
GI50 (SF-295): > 100 µM (inactive)
GI50 (A498): > 100 µM (inactive)
GI50 (DU-145): > 100 µM (inactive)
GI50 (IGROV-1): > 100 µM (inactive)
GI50 (MDA-MB-231): > 100 µM (inactive)
GI50 (EKVX): 19.9 µM (inactive)
GI50 (HT-29): 54.7 µM (inactive)
GI50 (T47D): > 100 µM (inactive)
GI50 (RPMI-8226): 84.9 µM (inactive)
GI50 (BT-549): > 100 µM (inactive)
GI50 (TK-10): > 100 µM (inactive)
GI50 (SK-MEL-5): > 100 µM (inactive)
GI50 (Malme-3M): > 100 µM (inactive)
GI50 (SNB-19): > 100 µM (inactive)
GI50 (SK-MEL-28): > 100 µM (inactive)
GI50 (SR): 27 µM (inactive)
GI50 (K562): 96.6 µM (inactive)
GI50 (Hs-578T): > 100 µM (inactive)
GI50 (HCT-15): > 100 µM
GI50 (HCT-116): 36.7 µM (inactive)
GI50 (U-251): 66.2 µM (inactive)
GI50 (NCI-H226): > 100 µM (inactive)
GI50 (LOX IMVI): 72.4 µM (inactive)
GI50 (SN12C): 51.5 µM (inactive)
GI50 (MCF7): 41.4 µM (inactive)
GI50 (UO-31): 20.4 µM (inactive)
GI50 (M14): > 100 µM (inactive)
GI50 (MOLT-4): > 100 µM (inactive)
GI50 (MDA-N): 87.7 µM (inactive)
GI50 (OVCAR-4): > 100 µM (inactive)
GI50 (OVCAR-8): > 100 µM (inactive)
GI50 (786-0): 35.9 µM (inactive)
GI50 (SW-620): > 100 µM (inactive)
